# Measurements reported in patent US20070015828A1 (Wyeth, priority 2005, published 2007).
# What was measured:
# Serotonin, 5HT1A (hr) = target: T1, Serotonin, 5HT1A (hr) (Homo sapiens, UniProt P08908); test: Receptor binding assay: Serotonin 5HT1A; conditions: Test Compound @ 10 1 M
# T1 construct: Novascreen (contract assay)
# Dopamine, D2s (hr) = Dopamine, D2s (hr) (Homo sapiens, UniProt P14416); test: Receptor binding assay: Dopamine D2s; conditions: Test Compound @ 10 1 M
# Adrenergic, Alpha 1A = target: T2, Adrenergic, Alpha 1A (Rattus norvegicus, UniProt P43140); test: Receptor binding assay: Adrenergic Alpha 1A; conditions: Test Compound @ 10 1 M
# T2 construct: Novascreen (assay provider)
# T2 sequence (P43140 whole entry): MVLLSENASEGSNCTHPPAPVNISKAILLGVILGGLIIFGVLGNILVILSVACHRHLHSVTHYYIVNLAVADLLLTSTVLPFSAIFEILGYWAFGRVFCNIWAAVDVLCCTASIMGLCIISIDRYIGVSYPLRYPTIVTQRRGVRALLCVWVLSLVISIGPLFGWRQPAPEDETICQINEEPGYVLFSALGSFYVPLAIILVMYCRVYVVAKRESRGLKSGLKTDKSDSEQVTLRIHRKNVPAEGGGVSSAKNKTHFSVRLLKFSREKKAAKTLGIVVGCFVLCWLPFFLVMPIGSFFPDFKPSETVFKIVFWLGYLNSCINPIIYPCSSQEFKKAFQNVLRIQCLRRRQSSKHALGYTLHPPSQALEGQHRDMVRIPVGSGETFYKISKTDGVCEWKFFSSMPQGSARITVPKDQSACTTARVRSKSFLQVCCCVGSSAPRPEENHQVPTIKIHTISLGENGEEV
# [1] = tested on: Serotonin, 5HT1, non-selective; test: Receptor binding assay: Serotonin 5HT1 non-selective; conditions: Test Compound @ 10 1 M
# [2] = tested on: Nicotinic (a-bungarotoxin insens); assay type: binding; conditions: Test Compound @ 10 1 M
# Histamine, H1 = target: T3, Histamine, H1 (Bos taurus, UniProt P30546); test: Histamine H1 binding assay; conditions: Test Compound @ 10 1 M, read-out: Receptor Binding % Inhibition
# T3 construct: Novascreen (assay provider)
# T3 sequence (P30546 whole entry): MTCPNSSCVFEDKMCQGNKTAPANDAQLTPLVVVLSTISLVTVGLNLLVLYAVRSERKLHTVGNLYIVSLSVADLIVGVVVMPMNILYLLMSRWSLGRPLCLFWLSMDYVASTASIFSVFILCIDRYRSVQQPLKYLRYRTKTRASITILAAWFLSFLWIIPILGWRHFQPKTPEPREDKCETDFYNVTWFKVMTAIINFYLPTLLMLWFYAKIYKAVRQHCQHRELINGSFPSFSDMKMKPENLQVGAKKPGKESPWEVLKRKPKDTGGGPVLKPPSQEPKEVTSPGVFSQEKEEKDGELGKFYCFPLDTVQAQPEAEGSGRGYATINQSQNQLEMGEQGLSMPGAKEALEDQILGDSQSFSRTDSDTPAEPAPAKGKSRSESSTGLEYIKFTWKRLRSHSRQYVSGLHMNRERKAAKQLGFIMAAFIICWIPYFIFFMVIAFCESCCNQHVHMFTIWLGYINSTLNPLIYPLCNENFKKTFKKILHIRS
# Muscarinic, M2 (hr) = target: T4, Muscarinic, M2 (hr) (Homo sapiens, UniProt P08172); test: Receptor binding assay: Muscarinic M2; conditions: Test Compound @ 10 1 M
# T4 construct: Novascreen (contract assay)
# T4 sequence (P08172 whole entry): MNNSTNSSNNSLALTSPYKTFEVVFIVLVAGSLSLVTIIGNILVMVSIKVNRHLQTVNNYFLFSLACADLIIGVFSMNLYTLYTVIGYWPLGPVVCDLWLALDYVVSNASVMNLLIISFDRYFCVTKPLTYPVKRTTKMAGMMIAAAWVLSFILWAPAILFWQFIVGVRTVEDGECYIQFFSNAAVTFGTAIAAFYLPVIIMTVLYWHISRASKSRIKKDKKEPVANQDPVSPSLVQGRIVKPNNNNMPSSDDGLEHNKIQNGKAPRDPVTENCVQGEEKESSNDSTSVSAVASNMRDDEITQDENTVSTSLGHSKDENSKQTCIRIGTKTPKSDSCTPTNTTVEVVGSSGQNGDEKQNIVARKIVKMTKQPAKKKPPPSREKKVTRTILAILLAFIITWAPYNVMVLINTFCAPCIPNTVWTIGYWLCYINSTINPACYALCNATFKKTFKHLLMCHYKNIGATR
# [3] = In vitro metabolism in hepatic microsomes, human; assay type: in vitro ADME; conditions: both sexes, mixed male and female humans, read-out: t1/2 in hepatic microsomes
# Description: (§1) In vitro metabolism of 1-[2-dimethylamino-1-(4-phenol)ethyl]-cis-1,4-cyclohexandiol was conducted in the hepatic microsomes of Sprague-Dawley rats, male dogs, male monkeys and mixed male and female humans to characterize metabolic stability and identification of metabolites. 1-[2-dimethylamino-1-(4-phenol)ethyl]-cis-1,4-cyclohexandiol was stable (t1/2>60 minutes) in hepatic microsomes indicating Phase I and II metabolism was minimal in all species.
# Oxidase, MAO-A, Central = target: T5, Oxidase, MAO-A, Central (Rattus norvegicus, UniProt P21396); test: Receptor binding assay: Oxidase MAO-A central (first line); conditions: Test Compound @ 10 1 M
# T5 construct: Novascreen (contract assay)
# T5 sequence (P21396 whole entry): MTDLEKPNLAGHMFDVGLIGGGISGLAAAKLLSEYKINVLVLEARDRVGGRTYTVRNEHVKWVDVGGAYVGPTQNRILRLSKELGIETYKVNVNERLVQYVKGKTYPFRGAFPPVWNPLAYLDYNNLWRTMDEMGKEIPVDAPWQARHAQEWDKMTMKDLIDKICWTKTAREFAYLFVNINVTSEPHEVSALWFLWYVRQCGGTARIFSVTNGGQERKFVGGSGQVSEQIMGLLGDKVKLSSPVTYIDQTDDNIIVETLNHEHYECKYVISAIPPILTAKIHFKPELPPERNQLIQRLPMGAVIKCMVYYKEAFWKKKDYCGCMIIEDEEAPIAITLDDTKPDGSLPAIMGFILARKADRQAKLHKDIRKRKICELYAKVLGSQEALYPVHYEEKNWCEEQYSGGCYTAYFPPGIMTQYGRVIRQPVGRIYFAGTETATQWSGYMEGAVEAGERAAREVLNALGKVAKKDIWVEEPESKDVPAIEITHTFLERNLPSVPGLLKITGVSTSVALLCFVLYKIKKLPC
# rat tail flick assay = test: Rat tail flick assay (acute pain); assay type: in vivo; conditions: up to 30 mg/kg po
# Imidazoline, I1 = test: Imidazoline binding assay: I1; conditions: Test Compound @ 10 1 M
# Adenosine A2A (hr) = Adenosine A2A (hr) (Homo sapiens, UniProt P29274); test: Receptor binding assay: Adenosine A2A; conditions: Test Compound @ 10 1 M
# Chain of Adenosine A2A (hr) (P29274 whole entry): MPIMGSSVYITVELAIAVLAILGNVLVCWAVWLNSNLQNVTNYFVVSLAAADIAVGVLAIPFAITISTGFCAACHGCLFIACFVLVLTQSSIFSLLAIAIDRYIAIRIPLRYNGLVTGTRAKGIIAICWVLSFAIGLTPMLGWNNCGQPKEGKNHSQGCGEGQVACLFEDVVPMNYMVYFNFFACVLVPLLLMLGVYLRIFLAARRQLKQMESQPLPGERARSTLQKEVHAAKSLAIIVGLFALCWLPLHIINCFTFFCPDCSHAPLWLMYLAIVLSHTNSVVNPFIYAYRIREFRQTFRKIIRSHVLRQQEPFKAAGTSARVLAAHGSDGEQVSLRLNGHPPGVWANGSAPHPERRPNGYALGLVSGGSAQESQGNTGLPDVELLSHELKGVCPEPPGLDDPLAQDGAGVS
# GABA A, Benzo, central = test: Receptor binding assay: GABA A benzo central; conditions: Test Compound @ 10 1 M
# [4] = In vitro metabolism in hepatic microsomes, dog; assay type: in vitro ADME; conditions: male dogs, read-out: t1/2 in hepatic microsomes
# Description: as §1
# cortical 5-HT = test: Microdialysis study, rat dorsal lateral frontal cortex; assay type: in vivo; conditions: male Sprague-Dawley rats, 30 mg/kg, combined with 5-HT1A antagonist WAY-100635 (0.3 mg/kg, s.c.) given 20 min before
# Description: 1-[2-dimethylamino-1-(4-phenol)ethyl]-cis-1,4-cyclohexandiol was evaluated in a microdialysis study conducted in male Sprague-Dawley rats [M T Taber et al, Differential effects of coadministration of fluoxetine and WAY-100635 on serotonergic neurotransmission in vivo: sensitivity to sequence of injections, Synapse, 2000 October; 38(1):17-26.] This technique can capture the neurochemical effects of compounds in the brains of freely-moving rodents. The effects of 1-[2-dimethylamino-1-(4-phenol)ethyl]-cis-1,4-cyclohexandiol were studied in the rat dorsal lateral frontal cortex, a brain region thought to be involved in etiology and/or treatment of depression. To see whether any effects on serotonin could be observed, the compound (30 mg/kg, sc) was tested in combination with the selective 5-HT1A antagonist, N-[2-[4-(2-methoxyphenyl)-1-piperazinyl] ethyl]-N-(2-pyridinyl)cyclohexanecarboxamide (WAY-100635). […]
# • 24 hr post-operative recovery • 3 hr equilibration after probe insertion • 1 hr 40 min baseline • 5-HT1A antagonist N-[2-[4-(2-methoxyphenyl)-1-piperazinyl]ethyl]-N-(2-pyridinyl)cyclohexanecarboxamide [WAY-100635] (0.3 mg/kg, s.c.) given 20 min before 1-[2-dimethylamino-1-(4-phenol)ethyl]-cis-1,4-cyclohexandiol (30 mg/kg, […]) Sample Collection: Samples collected for 3 hr 2 min post-injections Analysis: 5-HT levels quantified by HPLC-ECD
# Muscarinic, M1 (hr) = target: T6, Muscarinic, M1 (hr) (Homo sapiens, UniProt P11229); test: Receptor binding assay: Muscarinic M1; conditions: Test Compound @ 10 1 M
# T6 construct: Novascreen (contract assay)
# T6 sequence (P11229 whole entry): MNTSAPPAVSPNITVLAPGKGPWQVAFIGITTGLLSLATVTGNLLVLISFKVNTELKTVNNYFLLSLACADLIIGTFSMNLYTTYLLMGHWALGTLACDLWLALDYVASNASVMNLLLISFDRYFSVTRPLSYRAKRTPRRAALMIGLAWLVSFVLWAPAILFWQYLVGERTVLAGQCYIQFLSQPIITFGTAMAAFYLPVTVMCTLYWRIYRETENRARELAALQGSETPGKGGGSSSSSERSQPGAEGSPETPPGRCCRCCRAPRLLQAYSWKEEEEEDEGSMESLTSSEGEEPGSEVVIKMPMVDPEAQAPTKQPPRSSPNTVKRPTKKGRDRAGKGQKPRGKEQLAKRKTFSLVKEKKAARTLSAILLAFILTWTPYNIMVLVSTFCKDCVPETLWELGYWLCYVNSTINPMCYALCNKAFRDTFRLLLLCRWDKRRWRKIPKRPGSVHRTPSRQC
# Muscarinic, M4 (hr) = target: T7, Muscarinic, M4 (hr) (Homo sapiens, UniProt P08173); test: Receptor binding assay: Muscarinic M4; conditions: Test Compound @ 10 1 M
# T7 construct: Novascreen (contract assay)
# T7 sequence (P08173 whole entry): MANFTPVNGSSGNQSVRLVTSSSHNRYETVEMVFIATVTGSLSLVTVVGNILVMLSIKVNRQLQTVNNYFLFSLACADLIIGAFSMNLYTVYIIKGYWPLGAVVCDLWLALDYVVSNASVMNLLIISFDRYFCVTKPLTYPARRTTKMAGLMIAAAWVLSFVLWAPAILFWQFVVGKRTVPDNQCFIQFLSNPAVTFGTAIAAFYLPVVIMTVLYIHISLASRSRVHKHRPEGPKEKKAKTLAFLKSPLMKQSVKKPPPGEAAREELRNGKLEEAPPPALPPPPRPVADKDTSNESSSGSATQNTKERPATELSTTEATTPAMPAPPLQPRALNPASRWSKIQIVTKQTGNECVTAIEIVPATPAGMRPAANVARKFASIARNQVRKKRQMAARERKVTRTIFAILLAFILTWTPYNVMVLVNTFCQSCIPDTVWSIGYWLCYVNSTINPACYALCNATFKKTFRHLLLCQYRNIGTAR
# [5] = tested on: spinal nerve ligation model of neuropathic pain, tactile allodynia; test: Spinal nerve ligation model of neuropathic pain, tactile allodynia; assay type: in vivo; conditions: rat, up to 100 mg/kg
# Description: 1-[2-dimethylamino-1-(4-phenol)ethyl]-cis-1,4-cyclohexandiol was evaluated in two in-vivo animal models for pain, including a Visceral Pain model and a Neuropathic Pain model.
# Surgical procedures were performed under 4% isoflurane/O2 anesthesia, delivered via nose cone and maintained at 2.5% for the duration of the surgery. After induction of anesthesia, the incision site was shaved and prepared in a sterile manner. Spinal nerve ligation (SNL) surgery was performed as previously described [Kim, S. H. and Chung, J. M., An experimental model for peripheral neuropathy produced by segmental spinal nerve ligation in the rat, Pain, 50 (1992) 355-63] with the exception that nerve injury was produced by tight ligation of the left L5 spinal nerve. Briefly, a midline incision was made and the L5 transverse process was removed and the nerve was tightly ligated with 6-0 silk suture material and the wound was closed in layers with 4-0 vicryl suture and the skin closed with wound clips.
# Opiate, Kappa (hr) = target: T8, Opiate, Kappa (hr) (Homo sapiens, UniProt P41145); test: Receptor binding assay: Opiate Kappa; conditions: Test Compound @ 10 1 M
# T8 construct: Novascreen (contract assay)
# T8 sequence (P41145 whole entry): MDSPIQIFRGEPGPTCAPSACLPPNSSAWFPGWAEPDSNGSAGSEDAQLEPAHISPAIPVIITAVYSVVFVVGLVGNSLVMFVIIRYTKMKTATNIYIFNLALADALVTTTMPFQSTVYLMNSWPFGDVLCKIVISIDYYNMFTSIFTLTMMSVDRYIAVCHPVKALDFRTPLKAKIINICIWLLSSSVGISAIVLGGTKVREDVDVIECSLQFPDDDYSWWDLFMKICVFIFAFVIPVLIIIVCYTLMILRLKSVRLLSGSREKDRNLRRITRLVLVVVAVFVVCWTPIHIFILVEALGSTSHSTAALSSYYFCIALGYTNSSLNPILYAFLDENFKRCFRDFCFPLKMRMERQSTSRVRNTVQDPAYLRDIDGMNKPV
# Pharmacokinetics in dog = assay type: in vivo; conditions: plasma, male dogs
# Description: Preclinical pharmacokinetics of 1-[2-dimethylamino-1-(4-phenol)ethyl]-cis-1,4-cyclohexandiol was determined after a single 2.5 mg/kg IV bolus and 7.5 mg/kg oral dose in male dogs. […] The oral bioavailability was high (60%).
# Serotonin, 5HT1D (h) = target: T9, Serotonin, 5HT1D (h) (Homo sapiens, UniProt P28221); test: Receptor binding assay: Serotonin 5HT1D; conditions: Test Compound @ 10 1 M
# T9 construct: Novascreen (contract assay)
# T9 sequence (P28221 whole entry): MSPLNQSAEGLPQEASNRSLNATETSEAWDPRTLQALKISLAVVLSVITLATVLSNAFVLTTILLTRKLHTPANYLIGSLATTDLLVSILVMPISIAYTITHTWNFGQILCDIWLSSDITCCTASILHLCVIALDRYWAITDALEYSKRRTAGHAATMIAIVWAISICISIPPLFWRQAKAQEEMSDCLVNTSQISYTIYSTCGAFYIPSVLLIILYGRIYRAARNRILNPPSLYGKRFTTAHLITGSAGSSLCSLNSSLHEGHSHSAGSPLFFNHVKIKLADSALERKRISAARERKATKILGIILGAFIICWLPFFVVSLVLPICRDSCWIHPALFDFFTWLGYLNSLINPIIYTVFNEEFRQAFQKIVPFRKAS
# T1 sequence (P08908 whole entry): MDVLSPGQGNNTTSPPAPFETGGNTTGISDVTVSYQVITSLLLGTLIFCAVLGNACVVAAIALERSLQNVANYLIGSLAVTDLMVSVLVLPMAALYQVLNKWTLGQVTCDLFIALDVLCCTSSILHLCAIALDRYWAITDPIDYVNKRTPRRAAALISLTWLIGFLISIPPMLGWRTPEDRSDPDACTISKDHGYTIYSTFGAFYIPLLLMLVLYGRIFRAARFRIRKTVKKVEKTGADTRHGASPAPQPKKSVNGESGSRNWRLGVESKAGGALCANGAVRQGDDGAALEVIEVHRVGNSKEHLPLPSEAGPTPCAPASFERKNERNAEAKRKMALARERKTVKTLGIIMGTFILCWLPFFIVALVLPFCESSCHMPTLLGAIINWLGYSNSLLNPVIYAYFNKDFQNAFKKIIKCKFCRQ
# Chain of Dopamine, D2s (hr) (P14416 1-414 isoform P14416-2): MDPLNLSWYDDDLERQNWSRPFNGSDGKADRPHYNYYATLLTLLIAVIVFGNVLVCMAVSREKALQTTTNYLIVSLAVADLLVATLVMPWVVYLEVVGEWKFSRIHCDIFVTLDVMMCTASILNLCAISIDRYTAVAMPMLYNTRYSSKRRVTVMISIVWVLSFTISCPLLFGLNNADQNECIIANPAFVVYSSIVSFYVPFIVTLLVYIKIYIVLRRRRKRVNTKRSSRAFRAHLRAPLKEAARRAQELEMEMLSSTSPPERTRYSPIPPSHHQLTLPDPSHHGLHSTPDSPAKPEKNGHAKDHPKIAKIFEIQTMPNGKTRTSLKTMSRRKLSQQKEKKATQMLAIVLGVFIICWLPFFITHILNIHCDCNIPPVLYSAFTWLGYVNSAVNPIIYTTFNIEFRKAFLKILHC
smiles,measurement,setting,value
"CN(C)CC(c1ccc(O)cc1)C1(O)CCC(O)CC1 (stereo not drawn) [1-[2-dimethylamino-1-(4-phenol)ethyl]-cis-1,4-cyclohexandiol]",inhibition at 10 µM,"Serotonin, 5HT1A (hr)",1.8%
same,inhibition at 10 µM,"Dopamine, D2s (hr)",6.17%
same,inhibition at 10 µM,"Adrenergic, Alpha 1A",-1.96%
same,Receptor Binding % Inhibition,[1],5.09%
same,Receptor Binding % Inhibition,[2],−1.07%
same,inhibition at 10 µM,"Histamine, H1",-7.84%
same,inhibition at 10 µM,"Muscarinic, M2 (hr)",12%
same,half-life,[3],> 1 h
same,inhibition at 10 µM,"Oxidase, MAO-A, Central",-0.11%
same,effect on acute pain,rat tail flick assay,not found to affect acute pain
same,Receptor Binding % Inhibition,"Imidazoline, I1",17.43%
same,Receptor Binding % Inhibition,Adenosine A2A (hr),7.68%
same,Receptor Binding % Inhibition,"GABA A, Benzo, central",0.20%
same,half-life,[4],> 1 h
same,cortical 5-HT levels,cortical 5-HT,Robust elevations
same,inhibition at 10 µM,"Muscarinic, M1 (hr)",-5.96%
same,inhibition at 10 µM,"Muscarinic, M4 (hr)",-3.52%
same,reversal of tactile allodynia,[5],not found to reverse
same,inhibition at 10 µM,"Opiate, Kappa (hr)",-4.17%
same,bioavailability,Pharmacokinetics in dog; 7.5 mg/kg oral vs 2.5 mg/kg IV,60%
same,clearance,Pharmacokinetics in dog; single 2.5 mg/kg IV bolus,~7 mL/min/kg
same,half-life,"Pharmacokinetics in dog; single 2.5 mg/kg IV bolus, read-out: apparent terminal half-life (t1/2) (converted)",5.6 h
same,Vd,"Pharmacokinetics in dog; single 2.5 mg/kg IV bolus, read-out: apparent volume of distribution (VSS)",1.9 L/kg
same,half-life,"Pharmacokinetics in dog; single oral dose of 7.5 mg/kg, read-out: terminal oral half-life (converted)",6 h
same,inhibition at 10 µM,"Serotonin, 5HT1D (h)",7.26%
